Measured values reported in paper PMC11584170 (ACS chemical biology, 2023).
pEC50: −log10 of the molar value.

Columns and labels:
ERRγ = target: T1, ERRγ (Homo sapiens, UniProt P62508); assay: full-length ERR cell-based cotransfection/reporter assay in HEK293 cells; conditions: full-length ERR cotransfection
T1 sequence (P62508 1-458): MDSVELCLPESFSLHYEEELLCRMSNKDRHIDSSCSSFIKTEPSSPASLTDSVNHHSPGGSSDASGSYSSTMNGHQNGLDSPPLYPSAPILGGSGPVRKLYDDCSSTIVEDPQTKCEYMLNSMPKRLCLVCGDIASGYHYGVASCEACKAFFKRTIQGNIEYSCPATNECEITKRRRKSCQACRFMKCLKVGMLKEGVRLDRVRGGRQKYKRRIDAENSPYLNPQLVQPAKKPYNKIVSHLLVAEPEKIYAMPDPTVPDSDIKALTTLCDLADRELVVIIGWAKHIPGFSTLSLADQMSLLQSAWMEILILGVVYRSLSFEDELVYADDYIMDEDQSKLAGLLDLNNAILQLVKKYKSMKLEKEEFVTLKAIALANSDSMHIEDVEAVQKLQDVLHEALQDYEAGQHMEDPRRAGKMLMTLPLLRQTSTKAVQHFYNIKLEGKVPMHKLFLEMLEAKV

Gal4-ERR LBD = Gal4-ERR LBD chimeric cotransfection assay; format: cell-based
primary mouse myocytes = assay: Ddit4 and Slc25a25 expression in primary myocytes; format: cell-based
C57BL6/J mice = assay: exercise until exhaustion on rodent treadmill, WT mice; format: in vivo; conditions: sedentary mice, 7 days b.i.d. i.p. 50 mg/kg, run to exhaustion
C2C12 cells [1] = assay: Ddit4 gene expression in C2C12 myoblast cell line; format: cell-based, mouse; conditions: C2C12, 10 μM, 1 or 3 h
[2] = model of heart failure ref 38; cited from earlier work
[3] = tolerability in mice, 10 days dosing; format: in vivo
C2C12 cells [4] = assay: MitoTracker Red staining of C2C12 cells; format: cell-based, mouse; conditions: proliferating C2C12, 10 μM, 24 h
mice [5] = assay: circadian locomotor activity; format: in vivo; conditions: drug treatment
ERRγ LBD = target: T2, ERRγ LBD (Homo sapiens, UniProt P62508); assay: differential scanning fluorimetry; conditions: direct binding
T2 sequence (P62508 233-457 limits assumed): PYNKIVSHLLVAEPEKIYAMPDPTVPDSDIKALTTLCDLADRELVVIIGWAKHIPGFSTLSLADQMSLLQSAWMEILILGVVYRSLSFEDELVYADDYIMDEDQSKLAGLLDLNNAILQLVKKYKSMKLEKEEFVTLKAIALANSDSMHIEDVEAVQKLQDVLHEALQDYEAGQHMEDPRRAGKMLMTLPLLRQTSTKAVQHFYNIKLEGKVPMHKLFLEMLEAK

mice [6] = assay: grip strength test; format: in vivo; conditions: sedentary mice, 50 mg/kg, 2 weeks
C2C12 cells [7] = assay: ERR target gene; format: cell-based, mouse; conditions: C2C12, 24 h dose-response
C57BL/6J male mice = assay: acute single dose, Ddit4 and Slc25a25 expression in skeletal muscle; format: in vivo
C57BL/6J mice = assay: chronic treatment, skeletal muscle histology and protein/gene expression; format: in vivo
[8] = test system: mERRα fl/fl and mERRα−/− mice; assay: exercise endurance in muscle-specific ERRα KO mice; format: in vivo
ERRα = target: T3, ERRα (Homo sapiens, UniProt P11474); assay: full-length ERR cell-based cotransfection/reporter assay in HEK293 cells
T3 sequence (P11474 1-423): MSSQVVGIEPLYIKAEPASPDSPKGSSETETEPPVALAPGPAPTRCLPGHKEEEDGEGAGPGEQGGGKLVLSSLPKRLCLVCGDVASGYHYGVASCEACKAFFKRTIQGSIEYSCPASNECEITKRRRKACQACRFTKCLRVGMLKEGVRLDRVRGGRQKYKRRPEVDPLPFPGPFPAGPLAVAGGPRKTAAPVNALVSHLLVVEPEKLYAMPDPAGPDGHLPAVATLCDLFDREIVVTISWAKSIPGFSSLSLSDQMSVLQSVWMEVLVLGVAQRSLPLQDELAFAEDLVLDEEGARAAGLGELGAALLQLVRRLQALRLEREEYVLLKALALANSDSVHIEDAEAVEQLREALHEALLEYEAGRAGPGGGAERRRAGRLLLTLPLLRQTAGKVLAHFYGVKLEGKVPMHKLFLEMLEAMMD

ERRβ = target: T4, ERRβ (Homo sapiens, UniProt O95718); assay: as above; conditions: read-out: ERRβ EC50
T4 sequence (O95718 1-433): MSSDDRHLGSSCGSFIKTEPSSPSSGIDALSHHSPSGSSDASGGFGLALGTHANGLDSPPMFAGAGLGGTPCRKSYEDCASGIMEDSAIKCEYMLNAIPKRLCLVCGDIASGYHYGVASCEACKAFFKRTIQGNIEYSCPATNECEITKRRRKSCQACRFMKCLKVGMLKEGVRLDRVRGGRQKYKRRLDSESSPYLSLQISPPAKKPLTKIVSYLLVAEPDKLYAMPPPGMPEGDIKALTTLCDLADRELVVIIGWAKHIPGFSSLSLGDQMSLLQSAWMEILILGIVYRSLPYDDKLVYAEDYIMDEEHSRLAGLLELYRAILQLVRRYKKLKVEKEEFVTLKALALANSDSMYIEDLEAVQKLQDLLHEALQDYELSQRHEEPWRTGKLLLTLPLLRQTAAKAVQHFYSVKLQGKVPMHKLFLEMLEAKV

[9] = 50 mg/kg b.i.d., gastrocnemius muscle
[10] = 14 days b.i.d., i.p, 50 mg/kg, exercise until exhaustion
[11] = quadricep, not induced in mERRα−/−

For `CC/C(=C(\c1ccc(O)cc1)c1ccc(OCCN(C)C)cc1)c1ccccc1` [4-hydroXytamoXifen], the “inhibition of ERRγ constitutive activity” value (ERRγ) was ~75%.

With `O=C(N/N=C/c1ccc2ccccc2c1)c1ccc(O)cc1` [SLU-PP-332, (E)-4-Hydroxy-N′-(naphthalen-2-ylmethylene)benzohydrazide] the “activity at ERRs” value (Gal4-ERR LBD) was “displayed activity at all ERRs”, the “effect on Ddit4 expression in ERRα or ERRα/γ null myocytes” value (primary mouse myocytes; 1 μM, 2 h) was “lost” and the “effect on Ddit4 expression in ERRγ null myocytes” value (primary mouse myocytes; 1 μM, 2 h) was “retained”. The “Ddit4 expression, 2 h” value (primary mouse myocytes; primary mouse myocytes, 1 μM, 2 h) was “induced”, the “Ddit4 induction, 24 h” value (primary mouse myocytes; primary mouse myocytes, 1 μM, 24 h) was “not observed” and the “expression of Slc25a25” value (primary mouse myocytes; primary myocytes, 1 μM, 2 h) was “induced”. For the same molecule, the “ERRα dependence of Slc25a25 responsiveness” value (primary mouse myocytes; primary myocytes, WT vs KO) was “completely ERRα-dependent”, the “increase in running distance vs vehicle” value (C57BL6/J mice) was ~45% and the “increase in running time vs vehicle” value (C57BL6/J mice) was ~70%. The Ddit4 gene expression (C2C12 cells [1]) was “induced”, the improving heart function [2] was “very effective” and the “complete blood count and electrolyte levels” value ([3]; 50 mg/kg b.i.d., i.p., 10 days) was “normal”. The overt toxicity ([3]; 50 mg/kg b.i.d., i.p., 10 days) was “no overt toxicity”, the serum creatine kinase ([3]; skeletal muscle toxicity marker) was “no significant alterations” and the “mitochondrial biogenesis (MitoTracker Red)” value (C2C12 cells [4]) was “substantially induced”. The circadian locomotor activity (mice [5]) was “no alterations”, the “thermal stability of purified ERRγ LBD” value (ERRγ LBD) was “dose-dependently increased the thermal stability” and the grip strength (mice [6]) was “increase”. For the same molecule, the “expression of Pdk4” value (C2C12 cells [7]) was “clear increase”, the “DDIT4 protein expression level” value (C57BL/6J male mice; quadricep muscle, 3 h post 50 mg/kg i.p.) was 3.5 × and the “increase in Ddit4 expression” value (C57BL/6J male mice; sedentary mice, single dose 50 mg/kg i.p., 1 h) was ~3 fold. For the same molecule, the “increase in Ddit4 expression, drug plus exercise” value (C57BL/6J male mice; single dose 50 mg/kg i.p. and treadmill run, 1 h) was ~11 fold, the “increase in Slc25a25 expression” value (C57BL/6J male mice; single dose 50 mg/kg i.p., 1 h) was 11 fold and the “oxidative muscle phenotype (SDH staining)” value (C57BL/6J mice; 50 mg/kg b.i.d. i.p., 15 days, quadricep) was “greater SDH staining”. The “myofiber diameter (laminin staining)” value (C57BL/6J mice; 50 mg/kg b.i.d., 15 days) was “smaller in diameter”, the “complex I (NDUFB8) and complex V (ATP5A) expression” value (C57BL/6J mice; [9]) was “increase” and the “cytochrome c protein expression” value (C57BL/6J mice; [9]) was “increase”. For the same molecule, the “Myosin IIA protein (western blot)” value (C57BL/6J mice; quadriceps) was “increased expression”, the “expression of Myh6” value (C57BL/6J mice; quadriceps) was “increase” and the “oxidative type IIa muscle fibers” value (C57BL/6J mice; quadriceps, 50 mg/kg b.i.d.) was “increased”. The “mitochondria content (electron micrographs of quadriceps)” value (C57BL/6J mice; vs vehicle-treated) was “increase”, the “exercise endurance, mERRα fl/fl mice” value [8, 10] was “significantly enhanced exercise endurance” and the “exercise endurance, mERRα−/− mice” value [8, 10] was “equivalent to vehicle-treated”. The “upregulation of Ddit4 in quadriceps” value ([8]; mERRα fl/fl vs mERRα−/− mice) was “observed only in mERRα^fl/fl”, the “Alas2 expression, mERRα fl/fl mice” value [8, 11] was “significantly induced” and the “Per1 expression, mERRα fl/fl mice” value [8, 11] was “significantly induced”.

With `CC(C)c1ccc(/C=N/NC(=O)c2ccc(O)cc2)cc1` [GSK4716] the ERRα agonist activity (ERRα; ERR cotransfection assay) was “very weak agonist activity”, the pEC50 (ERRα; read-out: ERRα EC50, full-length ERR, HEK293) was < 5.30 and the pEC50 (ERRβ) was < 5.30.
